A value given as a limit tells only on which side of the number the result lay.

For the assay, the target named is Human CARM1 (PRMT4) (Homo sapiens (Human), UniProt Q86X55). The assay is described as follows: CARM1 enzyme assay on peptide substrate (3H-SAM Flashplate). The following applies: Biochemical potencies, classification codes; read-out: Biochem IC50.
Sequence of Human CARM1 (PRMT4) (Q86X55 other isoform, or with tags, fused parts or gaps isoform Q86X55-1): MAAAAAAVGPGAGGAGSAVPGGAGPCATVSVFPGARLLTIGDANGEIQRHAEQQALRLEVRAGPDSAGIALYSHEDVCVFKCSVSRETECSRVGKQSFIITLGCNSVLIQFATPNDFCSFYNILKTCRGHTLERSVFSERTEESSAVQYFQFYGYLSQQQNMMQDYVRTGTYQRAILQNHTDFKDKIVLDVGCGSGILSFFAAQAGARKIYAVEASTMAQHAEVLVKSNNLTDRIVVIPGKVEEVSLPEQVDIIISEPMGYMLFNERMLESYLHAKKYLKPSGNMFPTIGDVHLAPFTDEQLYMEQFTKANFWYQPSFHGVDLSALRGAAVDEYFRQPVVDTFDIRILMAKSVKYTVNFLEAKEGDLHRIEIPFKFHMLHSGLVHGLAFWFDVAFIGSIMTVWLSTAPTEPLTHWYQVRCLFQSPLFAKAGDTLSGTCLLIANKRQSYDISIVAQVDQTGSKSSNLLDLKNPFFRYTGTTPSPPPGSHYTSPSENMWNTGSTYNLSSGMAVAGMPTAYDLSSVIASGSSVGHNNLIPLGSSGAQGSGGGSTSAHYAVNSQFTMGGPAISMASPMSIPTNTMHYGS
A word on the IC50: it is the midpoint of a concentration-inhibition curve. Consider `CNCC(O)COc1cccc(-c2nc(NC)cc(-c3c(C)noc3C)n2)c1` (centres unmarked) [Example 27-1a], for which the IC50 is less than 100 nM.

Regarding `CCOC(=O)N1CCN(c2nc(-c3cccc(OCC(O)CNC)c3)nc(-c3c(C)noc3C)c2C)CC1` (centres unmarked) [Example 77-1a], the IC50 was less than 100 nM.

As to `Cc1noc(C)c1-c1cc(NC2CCOCC2)nc(-c2cccc(OC[C@H](O)CN)c2)n1` [Example 16-1a], the IC50 was less than 100 nM.

On to `CNCC(O)COc1cccc(-c2nc(N3CCOCC3)c(F)c(N(C)C3CCOCC3)n2)c1` (centres unmarked) [Example 500-1a], for which the IC50 was less than 100 nM.

Regarding `CNCC(O)COc1cccc(-c2nc(NC3(C)CCOCC3)c(C)c(-c3c(C)noc3C)n2)c1` (centres unmarked) [Example 101-1a], the IC50 is less than 100 nM.

Consider `CNCC(O)COc1cc(Cl)cc(-c2nc(NC3CCN(CC(F)F)CC3)c(C)c(-c3c(C)noc3C)n2)c1` (centres unmarked) [Example 21-3], for which the IC50 is less than 100 nM.

For the molecule `CNCC(O)COc1cccc(-c2nc(NCC3CN(C)CCO3)c(C)c(-c3c(C)noc3C)n2)c1` (centres unmarked) [Example 171-1a], the concentration for half-maximal inhibition (IC50) was less than 100 nM.

On to `CNCC(O)COc1cccc(-c2nc(-c3c(C)noc3C)c(C)c(N3CC4(CN(C(=O)N(C)C)C4)C3)n2)c1` (centres unmarked) [Example 309-1a], for which the IC50 is less than 100 nM.

Regarding `CNC[C@@H](O)COc1ccc(Cl)c(-c2nc(N[C@@H]3CCN(C4CC4)C[C@@H]3F)c(Cl)c(-c3c(C)noc3C)n2)c1` [Example 211-3], the IC50 is less than 100 nM.

As to `CNCC(O)COc1cccc(-c2nc(-c3c(C)noc3C)c(C)c(N3CCN(C(=O)OCCOC)CC3)n2)c1` (centres unmarked) [Example 134-1a], the IC50 is less than 100 nM.

Take `CNC[C@@H](O)COc1ccc(Cl)c(-c2nc(-c3c(C)noc3C)c(C)c(N3CCc4ncccc43)n2)c1` [Example 199-3]: the IC50 is less than 100 nM.

Regarding `CNCC(O)COc1cccc(-c2nc(-c3c(C)noc3C)c(C)c(N3CCO[C@H](CO)C3)n2)c1` (some centres unmarked) [Example 125-1a], the IC50 was less than 100 nM.

Turning to `CNC[C@H](O)COc1ccc(Cl)c(-c2nc(N[C@H]3CCN(C(=O)OC)C[C@H]3F)c(C)c(-c3c(C)noc3C)n2)c1` [Example 65-3], the IC50 is less than 100 nM.

Regarding `CNCC(O)COc1cccc(-c2nc(NC3CCN(C(=O)OC(C)(C)C)C[C@H]3F)c(C)c(-c3c(C)noc3C)n2)c1` (some centres unmarked) [Example 208-1a], the IC50 was less than 100 nM.

For `CNCC(O)COc1cccc(-c2nc(NC3CCOCC3C)c(C)c(-c3c(C)noc3C)n2)c1` (centres unmarked) [Example 269-1a], the IC50 was less than 100 nM.

As to `CNCC(O)COc1cccc(-c2nc(NCC3(N4CCC4)CCOCC3)c(C)c(-c3c(C)noc3C)n2)c1` (centres unmarked) [Example 301-1a], the IC50 was less than 100 nM.

In the case of `CNC[C@@H](O)COc1ccc(Cl)c(-c2nc(-c3c(C)noc3C)c(C)c(N3CC4(CCN(CC(F)F)CC4)C3)n2)c1` [Example 283-3], the IC50 was less than 100 nM.

For the molecule `CNCC(O)COc1cccc(-c2nc(NC3CCOC(C)C3)c(C)c(-c3c(C)noc3C)n2)c1` (centres unmarked) [Example 239-1a], the IC50 is less than 100 nM.

`CNCC(O)COc1cccc(-c2nc(-c3ccnc(OC)c3)cc(N(C)C3CCOCC3)n2)c1` (centres unmarked) [Example 541-1a]: the IC50 was less than 100 nM.

With `CNCC(O)COc1ccc(Cl)c(-c2nc(N[C@H]3CCC[C@@H](OC)C3)c(C)c(-c3c(C)noc3C)n2)c1` (some centres unmarked) [Example 57-3], the IC50 was less than 100 nM.

Consider `CNC[C@@H](O)COc1ccc(Cl)c(-c2nc(-c3c(C)noc3C)c(F)c(N3Cc4nccnc4C3)n2)c1` [Example 297-3], for which the IC50 is less than 100 nM.

Turning to `CNCC(O)COc1cccc(-c2nc(-c3ccc(OC)c(OC)c3)cc(N(C)CCC#N)n2)c1` (centres unmarked) [Example 49-1], the IC50 is less than 100 nM.

Regarding `CNCC(O)COc1cc(Cl)cc(-c2nc(-c3ccc(N(C)C)nc3)c(C)c(N(C)C3CCOCC3)n2)c1` (centres unmarked) [Example 614-1a], the IC50 is less than 100 nM.

For `CCN1CCC[C@@H]1CNc1nc(-c2cc(OC[C@@H](O)CNC)ccc2Cl)nc(-c2c(C)noc2C)c1C` [Example 77-3], the half-maximal inhibitory concentration (IC50) is less than 100 nM.

As to `CNC[C@@H](O)COc1ccc(Cl)c(-c2nc(N[C@H]3CCO[C@@H](C)C3)c(C)c(-c3c(C)noc3C)n2)c1` [Example 128-3], the IC50 is less than 100 nM.

As to `CNCC(O)COc1cccc(-c2nc(N[C@@H]3CCOC3)c(C)c(C3=CC(C)(C)NC(C)(C)C3)n2)c1` (some centres unmarked) [Example 415-1a], the IC50 was less than 100 nM.

Turning to `CNC[C@@H](O)COc1ccc(Cl)c(-c2nc(N[C@H]3CCN(C(=O)OC)[C@H](C)C3)c(C)c(-c3c(C)noc3C)n2)c1` [Example 102-3], the IC50 was less than 100 nM.

For the molecule `CNCC(O)COc1cccc(-c2nc(N[C@@H]3CCOC3)c(C)c(N3CCN(C4CC4)[C@H](C)C3)n2)c1` (some centres unmarked) [Example 466-1a], the IC50 is less than 100 nM.

Take `CNCC(O)COc1cccc(-c2nc(-c3c(C)noc3C)c(C)c(N3CC4(CN(C(=O)OC)C4)C3)n2)c1` (centres unmarked) [Example 299-1a]: the IC50 is less than 100 nM.

Turning to `CNCC(O)COc1cccc(-c2nc(-c3c(C)noc3C)cc(N3CCN(C(=O)N(C)C)CC3)n2)c1` (centres unmarked) [Example 120-1a], the IC50 is less than 100 nM.

Consider `CNCC(O)COc1cc(OC)cc(-c2nc(C3CC3)cc(N(C)C3CCOCC3)n2)c1` (centres unmarked) [Example 25-1], for which the IC50 was less than 100 nM.

Take `CNCC(O)COc1cccc(-c2nc(-c3cnc4cnccn34)cc(N(C)C3CCOCC3)n2)c1` (centres unmarked) [Example 490-1a]: the IC50 is less than 100 nM.

Take `CCOC(=O)N1CCOC[C@@H]1CNc1nc(-c2cc(OC[C@@H](O)CNC)ccc2Cl)nc(-c2c(C)noc2C)c1C` [Example 42-3]: the IC50 is less than 100 nM.

Regarding `CNCC(O)COc1cccc(-c2nc(-c3c(C)noc3C)cc(N3CCN(CCF)[C@H](C)C3)n2)c1` (some centres unmarked) [Example 145-1a], the IC50 was less than 100 nM.

As for `CNC[C@H](O)COc1ccc(Cl)c(-c2nc(-c3c(C)noc3C)c(C)c(N3CCC4(CC3)CN(C(=O)OC)C4)n2)c1` [Example 85-3], the half-maximal inhibitory concentration (IC50) is less than 100 nM.

For the molecule `CNCC(O)COc1cccc(-c2nc(-c3c(C)noc3C)c(C)c(N3Cc4cccnc4C3)n2)c1` (centres unmarked) [Example 35-3], the IC50 is less than 100 nM.

As to `CNCC(O)COc1cccc(-c2nc(-c3nc(C)cs3)cc(N(C)C3CCOCC3)n2)c1` (centres unmarked) [Example 624-1a], the IC50 was less than 100 nM.

Take `CNC[C@@H](O)COc1ccc(F)c(-c2nc(-c3c(C)noc3C)c(C)c(N3CC4(CCN(CC(F)F)CC4)C3)n2)c1` [Example 280-3]: the IC50 is less than 100 nM.

In the case of `CNCC(O)COc1cccc(-c2nc(N[C@@H]3CCOC3)c(C)c(N3CCC4(CC3)CNC(=O)C4)n2)c1` (some centres unmarked) [Example 424-1a], the IC50 is less than 100 nM.

Take `CNCC(O)COc1cccc(-c2nc(N(C)C3CCOCC3)cc(N3C[C@@H]4C[C@H]3CN4C)n2)c1` (some centres unmarked) [Example 543-1a]: the IC50 was less than 100 nM.

Consider `CNCC(O)COc1cccc(-c2nc(N[C@@H]3CCOC3)c(C)c(N3CCC(S(C)(=O)=O)CC3)n2)c1` (some centres unmarked) [Example 441-1a], for which the half-inhibitory concentration (IC50) was less than 100 nM.

`CNC[C@H](O)COc1ccc(F)c(-c2nc(NC3CCOCC3)c(C)c(-c3c(C)noc3C)n2)c1` [Example 72-3]: the IC50 is less than 100 nM.

Consider `CNC[C@H](O)COc1ccc(F)c(-c2nc(-c3c(C)noc3C)c(C)c(N3CCC4(CCN(C(=O)OC)C4)C3)n2)c1` (some centres unmarked) [Example 106-3], for which the IC50 was less than 100 nM.

Take `CNCC(O)COc1cc(OC)cc(-c2nc(-c3cnc4cnccn34)cc(N(C)C3CCOCC3)n2)c1` (centres unmarked) [Example 492-1a]: the IC50 was less than 100 nM.

Regarding `CNCC(O)COc1cccc(-c2nc(-c3c(C)noc3C)cc(N3C[C@@H]4C[C@H]3CN4C(=O)OC)n2)c1` (some centres unmarked) [Example 94-1a], the IC50 was less than 100 nM.

Take `CNCC(O)COc1cccc(-c2nc(N[C@@H]3CC[C@H](O)C3)c(C)c(-c3c(C)noc3C)n2)c1` (some centres unmarked) [Example 163-1a]: the IC50 was less than 100 nM.

As for `CNCC(O)COc1cccc(-c2nc(-c3cnc4[nH]ccc4c3)cc(N(C)C3CCOCC3)n2)c1` (centres unmarked) [Example 55-1], the IC50 was less than 100 nM.

Take `CNCC(O)COc1cccc(-c2nc(-c3cc4ccccc4o3)cc(N(C)C3CCOCC3)n2)c1` (centres unmarked) [Example 570-1a]: the IC50 was less than 100 nM.

On to `CNC[C@@H](O)COc1ccc(Cl)c(-c2nc(-c3c(C)noc3C)c(C)c(N3CC4(CCN(C(=O)OC)C4)C3)n2)c1` [Example 175-3], for which the IC50 was less than 100 nM.

With `CNCC(O)COc1cccc(-c2nc(-c3c(C)noc3C)cc(N3C[C@@H]4C[C@H]3CN4S(C)(=O)=O)n2)c1` (some centres unmarked) [Example 80-1a], the IC50 was less than 100 nM.

Consider `CCOC(=O)N1CC[C@@H](Nc2nc(-c3cccc(OCC(O)CNC)c3)nc(-c3c(C)noc3C)c2C)[C@@H](F)C1` (some centres unmarked) [Example 226-1a], for which the IC50 was less than 100 nM.

Take `CCOC(=O)N1CCOC[C@H]1CNc1nc(-c2cc(OC[C@H](O)CNC)ccc2F)nc(-c2c(C)noc2C)c1C` [Example 60-3]: the IC50 is less than 100 nM.

In the case of `CNC[C@@H](O)COc1ccc(Cl)c(-c2nc(NC[C@H]3CCOC3)c(C)c(-c3c(C)noc3C)n2)c1` [Example 233-3], the IC50 is less than 100 nM.

For the molecule `CNCC(O)COc1ccc(Cl)c(-c2nc(NCC3CCOCC3)c(C)c(-c3c(C)noc3C)n2)c1` (centres unmarked) [Example 9-3], the IC50 is less than 100 nM.

As for `CNCC(O)COc1cccc(-c2nc(N3CCN(CCF)[C@@H](C)C3)cc(N(C)C3CCOCC3)n2)c1` (some centres unmarked) [Example 578-1a], the IC50 was less than 100 nM.

`CNCC(O)COc1cccc(-c2nc(N[C@@H]3CCOC3)c(C)c(-c3cncc(C#N)c3)n2)c1` (some centres unmarked) [Example 341-1a]: the IC50 is less than 100 nM.

On to `CNCC(O)COc1cc(Cl)cc(-c2nc(-c3cnc4ccccc4n3)c(C)c(N(C)C3CCOCC3)n2)c1` (centres unmarked) [Example 612-1a], for which the IC50 was less than 100 nM.

For `CNC[C@@H](O)COc1ccc(Cl)c(-c2nc(NC3CC(F)(F)C3)c(C)c(-c3c(C)noc3C)n2)c1` [Example 189-3], the IC50 was less than 100 nM.

Take `CNCC(O)COc1cccc(-c2nc(NC3CCOCC3)c(F)c(-c3c(C)noc3C)n2)c1` (centres unmarked) [Example 96-1a]: the IC50 was less than 100 nM.

Turning to `CNCC(O)COc1cc(Cl)cc(-c2nc(-c3ccncc3)c(C)c(N(C)[C@H]3CCOC3)n2)c1` (some centres unmarked) [Example 334-1a], the IC50 is less than 100 nM.

As for `CNCC(O)COc1cccc(-c2nc(-c3c(C)noc3C)cc(N3CCNC(C(F)(F)F)C3)n2)c1` (centres unmarked) [Example 131-1a], the IC50 is less than 100 nM.

On to `CNC[C@@H](O)COc1ccc(F)c(-c2nc(N[C@H]3CCN(C4CC4)C[C@H]3F)c(C)c(-c3c(C)noc3C)n2)c1` [Example 98-3], for which the IC50 is less than 100 nM.

The record behind these values is patent US20230279020A9, “CARM1 INHIBITORS AND USES THEREOF” (Epizyme, Inc., priority 2013, published 2023).
